Values joined by “and” are separate entries in the source; they are usually repeats but may differ in a detail not shown here. Equal values may be shown once. Active and inactive are the calls of the source. How the calls were made is not given here.
System: rodent lifetime carcinogenesis bioassay, tumor incidence TD50
Assay: chronic cancer bioassays in animals – CPDB, compiled studies (AID 1745844)
Conditions: inhaled; for carcinogen call: lesion: one or several types, types not named

Compound: C=CC(=C)Cl
- TD50 (hamster, strain Syrian Golden, females, site: any site (literature study), lesion: several types, types named in the paper, dosed 78 weeks, study length 78 weeks): 180 mg/kg/day (inactive)
- carcinogen call (hamster, strain Syrian Golden, females, site: liver, dosed 78 weeks, study length 78 weeks): negative (inactive)
- carcinogen call (hamster, strain Syrian Golden, females, site: lung, dosed 78 weeks, study length 78 weeks): negative (inactive)
- TD50 (hamster, strain Syrian Golden, males, site: any site (literature study), lesion: several types, types named in the paper, dosed 78 weeks, study length 78 weeks): 110 mg/kg/day (inactive)
- carcinogen call (hamster, strain Syrian Golden, males, site: liver, dosed 78 weeks, study length 78 weeks): negative (inactive)
- carcinogen call (hamster, strain Syrian Golden, males, site: lung, dosed 78 weeks, study length 78 weeks): negative (inactive)
- TD50 (mouse, strain B6C3F1, females, site: Harderian gland, lesion: adenoma + carcinoma, dosed 104 weeks, study length 104 weeks): 55.2 mg/kg/day
- TD50 (mouse, strain B6C3F1, females, site: Harderian gland, lesion: adenoma, dosed 104 weeks, study length 104 weeks): 61.3 mg/kg/day
- TD50 (mouse, strain B6C3F1, females, site: Zymbal's gland, lesion: carcinoma, dosed 104 weeks, study length 104 weeks): 864 mg/kg/day
- TD50 (mouse, strain B6C3F1, females, site: all sites + forestomach + Harderian gland + liver + lung + mesentery + mammary gland + subcutaneous tissue + Zymbal's gland, lesion: hemangioma + hemangiosarcoma + squamous-cell carcinoma + squamous-cell papilloma + adenoma + carcinoma + hepatocellular adenoma + hepa, dosed 104 weeks, study length 104 weeks): 4 mg/kg/day
- TD50 (mouse, strain B6C3F1, females, site: all sites, lesion: hemangioma + hemangiosarcoma, dosed 104 weeks, study length 104 weeks): 21.5 mg/kg/day
- TD50 (mouse, strain B6C3F1, females, site: all sites, lesion: hemangioma, dosed 104 weeks, study length 104 weeks): 134 mg/kg/day
- TD50 (mouse, strain B6C3F1, females, site: all sites, lesion: hemangiosarcoma, dosed 104 weeks, study length 104 weeks): 22.2 mg/kg/day
- TD50 (mouse, strain B6C3F1, females, site: any site (literature study), lesion: several types, types named in the paper, dosed 104 weeks, study length 104 weeks): 3.92 mg/kg/day
- TD50 (mouse, strain B6C3F1, females, site: forestomach, lesion: squamous-cell carcinoma + squamous-cell papilloma, dosed 104 weeks, study length 104 weeks): 332 mg/kg/day
- TD50 (mouse, strain B6C3F1, females, site: liver, lesion: hepatocellular adenoma + hepatoblastoma + hepatocellular carcinoma, dosed 104 weeks, study length 104 weeks): 7.07 mg/kg/day
- TD50 (mouse, strain B6C3F1, females, site: liver, lesion: hepatocellular adenoma + hepatocellular carcinoma, dosed 104 weeks, study length 104 weeks): 7.07 mg/kg/day
- TD50 (mouse, strain B6C3F1, females, site: liver, lesion: hepatocellular adenoma, dosed 104 weeks, study length 104 weeks): 19.8 mg/kg/day
- TD50 (mouse, strain B6C3F1, females, site: liver, lesion: hepatocellular carcinoma, dosed 104 weeks, study length 104 weeks): 15.2 mg/kg/day
- TD50 (mouse, strain B6C3F1, females, site: lung, lesion: alveolar/bronchiolar adenoma + alveolar/bronchiolar carcinoma, dosed 104 weeks, study length 104 weeks): 5.36 mg/kg/day
- TD50 (mouse, strain B6C3F1, females, site: lung, lesion: alveolar/bronchiolar adenoma, dosed 104 weeks, study length 104 weeks): 8.65 mg/kg/day
- TD50 (mouse, strain B6C3F1, females, site: lung, lesion: alveolar/bronchiolar carcinoma, dosed 104 weeks, study length 104 weeks): 14.6 mg/kg/day
- TD50 (mouse, strain B6C3F1, females, site: mammary gland, lesion: adenoma + carcinoma, dosed 104 weeks, study length 104 weeks): 65.6 mg/kg/day
- TD50 (mouse, strain B6C3F1, females, site: mammary gland, lesion: carcinoma, dosed 104 weeks, study length 104 weeks): 75.3 mg/kg/day
- TD50 (mouse, strain B6C3F1, females, site: mesentery, lesion: hemangioma + hemangiosarcoma, dosed 104 weeks, study length 104 weeks): 25.9 mg/kg/day
- TD50 (mouse, strain B6C3F1, females, site: mesentery, lesion: hemangiosarcoma, dosed 104 weeks, study length 104 weeks): 32.2 mg/kg/day
- TD50 (mouse, strain B6C3F1, females, site: mesentery, lesion: sarcoma, dosed 104 weeks, study length 104 weeks): 40 mg/kg/day
- TD50 (mouse, strain B6C3F1, females, site: pituitary gland, lesion: pars distalis adenoma, dosed 104 weeks, study length 104 weeks): 68.1 mg/kg/day
- TD50 (mouse, strain B6C3F1, females, site: subcutaneous tissue, lesion: sarcoma, dosed 104 weeks, study length 104 weeks): 28.9 mg/kg/day
- TD50 (mouse, strain B6C3F1, females, site: uterus, lesion: endometrial stromal polyp, dosed 104 weeks, study length 104 weeks): 133 mg/kg/day
- TD50 (mouse, strain B6C3F1, males, site: Harderian gland, lesion: adenoma + adenoma, bilateral + carcinoma, dosed 104 weeks, study length 104 weeks): 60.9 mg/kg/day
- TD50 (mouse, strain B6C3F1, males, site: Harderian gland, lesion: adenoma + adenoma, bilateral, dosed 104 weeks, study length 104 weeks): 79.5 mg/kg/day
- TD50 (mouse, strain B6C3F1, males, site: all sites + forestomach + Harderian gland + lung, lesion: hemangioma + hemangiosarcoma + squamous-cell carcinoma + squamous-cell papilloma + adenoma + adenoma, bilateral + carcinoma + alveolar, dosed 104 weeks, study length 104 weeks): 8.68 mg/kg/day
- TD50 (mouse, strain B6C3F1, males, site: all sites, lesion: hemangioma + hemangiosarcoma, dosed 104 weeks, study length 104 weeks): 17.9 mg/kg/day and 21.3 mg/kg/day
- TD50 (mouse, strain B6C3F1, males, site: all sites, lesion: hemangiosarcoma, dosed 104 weeks, study length 104 weeks): 19.1 mg/kg/day and 23.8 mg/kg/day
- TD50 (mouse, strain B6C3F1, males, site: any site (literature study), lesion: several types, types named in the paper, dosed 104 weeks, study length 104 weeks): 28.4 mg/kg/day
- TD50 (mouse, strain B6C3F1, males, site: forestomach, lesion: squamous-cell carcinoma + squamous-cell papilloma, dosed 104 weeks, study length 104 weeks): 291 mg/kg/day
- TD50 (mouse, strain B6C3F1, males, site: forestomach, lesion: squamous-cell papilloma, dosed 104 weeks, study length 104 weeks): 335 mg/kg/day
- TD50 (mouse, strain B6C3F1, males, site: kidney, lesion: tubule adenoma, dosed 104 weeks, study length 104 weeks): 301 mg/kg/day and 129 mg/kg/day
- TD50 (mouse, strain B6C3F1, males, site: liver, lesion: hemangiosarcoma, dosed 104 weeks, study length 104 weeks): 123 mg/kg/day
- TD50 (mouse, strain B6C3F1, males, site: liver, lesion: hepatoblastoma + hepatocellular carcinoma, dosed 104 weeks, study length 104 weeks): 19.5 mg/kg/day
- TD50 (mouse, strain B6C3F1, males, site: liver, lesion: hepatocellular adenoma + hepatoblastoma + hepatocellular carcinoma, dosed 104 weeks, study length 104 weeks): 39.9 mg/kg/day
- TD50 (mouse, strain B6C3F1, males, site: liver, lesion: hepatocellular adenoma + hepatocellular carcinoma, dosed 104 weeks, study length 104 weeks): 42.5 mg/kg/day
- TD50 (mouse, strain B6C3F1, males, site: liver, lesion: hepatocellular adenoma, dosed 104 weeks, study length 104 weeks): 71.9 mg/kg/day
- TD50 (mouse, strain B6C3F1, males, site: liver, lesion: hepatocellular carcinoma, dosed 104 weeks, study length 104 weeks): 21.6 mg/kg/day

— PubChem BioAssay AID1745844 (Carcinogenic Potency Database (CPDB), 2022)
